Experiments:
Type in all cases: binding
[1] = molecular target: T1, CXCR1 (Homo sapiens, UniProt P25024); experiment: NanoBRET screen HiBiT-CXCR1 in HEK293; conditions: CXCR1
T1 construct: purchased Promega (in-house HiBiT-GPCR construct library, NanoBRET)
T1 sequence (P25024 1-350): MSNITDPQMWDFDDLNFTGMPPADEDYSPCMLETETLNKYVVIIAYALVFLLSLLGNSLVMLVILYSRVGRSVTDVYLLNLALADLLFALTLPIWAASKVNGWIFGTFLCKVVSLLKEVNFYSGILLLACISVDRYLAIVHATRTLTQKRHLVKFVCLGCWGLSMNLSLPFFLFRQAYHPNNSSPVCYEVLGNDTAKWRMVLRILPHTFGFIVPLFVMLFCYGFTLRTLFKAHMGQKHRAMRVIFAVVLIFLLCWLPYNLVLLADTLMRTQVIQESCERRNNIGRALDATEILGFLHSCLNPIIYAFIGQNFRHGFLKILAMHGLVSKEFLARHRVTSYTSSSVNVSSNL
Procedure: (§1) Each tracer candidate was screened across the entire library of HiBiT-GPCR constructs using NanoBRET as the detection modality. As depicted in Figure 4A, the specificity of interactions was evaluated through decrease in BRET due to competitive displacement of a bound tracer by excess parental compound. Each tracer was analyzed for binding to each HiBiT-GPCR fusion in the absence and in the presence of competing parental compound. Briefly, HEK293 cells were transfected with HiBiT-GPCR constructs diluted into promoterless DNA to reduce expression and maximize translocation to the cell surface. Each tracer candidate was then screened at concentrations of 1 μM and 0.1 μM across cells expressing these fusions. Cells were treated for 1.5 h with tracer either alone or in the presence of 20 μM competing parental compound (i.e., control). BRET was measured upon addition of purified LgBiT and subsequent complementation with HiBiT genetically fused to a GPCR. The specificity of interactions was assessed through a decrease in BRET signal due to competitive displacement of the bound tracer. To further gauge the robustness of these interactions, the fold response over the control (i.e., BRETtracer/BRETcontrol) was calculated. We chose a 1.5-fold response, which translates to ≥7-fold signal over noise as the minimal threshold required to score an interaction as positive. […]. Below we highlight the screening results obtained for our exemplary fluorescent tracers based on Clozapine, Amitriptyline and AZD1283.
(§2) HiBiT-GPCR DNA constructs were diluted in 10 mM Tris pH 8 to a final concentration of 0.01 μg/μL, arrayed in 96-well plates and stored at −20 °C. For transfection, HEK293 cells were suspended in Opti-MEM (without phenol red) supplemented with 2% fetal bovine serum (Seradigm) and 100 units/mL penicillin–streptomycin (Gibco) at a final concentration of 220,000 cells/mL and dispensed into white 96-well plates at 90 μL/well. Subsequent transfections and screens were carried using an Agilent Bravo Automated Liquid Handling Platform. First, the 96-well HiBiT DNA arrays were diluted 25-fold in Opti-MEM (without serum or phenol red) to a final concentration of 0.0004 μg/μL and 20 μL of the diluted DNAs were transferred into new 96-well plates. Next, promoterless carrier DNA (1 μg/μL) was diluted 25-fold (0.04 μg/μL) and then dispensed into the diluted arrays at 20 μL/well. Following brief mixing, Viafect transfection reagent (Promega) diluted 16-fold into Opti-MEM was dispensed into the plates at 40 μL/well. After mixing by pipetting, plates were incubated for 10 min on the pipetting station deck. The DNA-transfection reagent complexes were then added to plates containing cells. To facilitate the screen, 10 μL of DNA-transfection reagent complexes were added in duplicates to the top 4 and bottom 4 rows, resulting in two identical 48-well arrays per plate. Plates with transfected cells were incubated for 18–20 h at 37 °C/5% CO2. A screen of each tracer across the entire library using two different concentrations requires duplicate plates of transfected cells. Depending on the number of tracers being screened, transfections can be scaled up using the same ratios. The next day, for each tracer, four 20× screening solutions in tracer dilution buffer (Promega) were prepared: two duplicates at final concentration of 20 μM and two duplicates at a final concentration of 2 μM. A competing unmodified compound was added to one of each duplicate at a final concentration of 400 μM. The four resulting solutions were diluted 4-fold in Opti-MEM without serum or phenol red to generate 5× solutions (5 µM and 0.5 µM tracer +/− 100 μM competing compound). To screen the library, a BioTek MultiFlo FX liquid dispenser was used to dispense 22.5 µL of tracer solution to the top 4 rows and 22.5 µL tracer + competing compound solution to the 4 bottom rows. Plates were briefly mixed on an orbital shaker and incubated for 1.5 h at room temperature. […]

[2] = molecular target: T2, DRD5 (Homo sapiens, UniProt P21918); experiment: NanoBRET screen HiBiT-DRD5 in HEK293; conditions: DRD5
T2 construct: purchased Promega (in-house HiBiT-GPCR construct library, NanoBRET)
T2 sequence (P21918 whole entry): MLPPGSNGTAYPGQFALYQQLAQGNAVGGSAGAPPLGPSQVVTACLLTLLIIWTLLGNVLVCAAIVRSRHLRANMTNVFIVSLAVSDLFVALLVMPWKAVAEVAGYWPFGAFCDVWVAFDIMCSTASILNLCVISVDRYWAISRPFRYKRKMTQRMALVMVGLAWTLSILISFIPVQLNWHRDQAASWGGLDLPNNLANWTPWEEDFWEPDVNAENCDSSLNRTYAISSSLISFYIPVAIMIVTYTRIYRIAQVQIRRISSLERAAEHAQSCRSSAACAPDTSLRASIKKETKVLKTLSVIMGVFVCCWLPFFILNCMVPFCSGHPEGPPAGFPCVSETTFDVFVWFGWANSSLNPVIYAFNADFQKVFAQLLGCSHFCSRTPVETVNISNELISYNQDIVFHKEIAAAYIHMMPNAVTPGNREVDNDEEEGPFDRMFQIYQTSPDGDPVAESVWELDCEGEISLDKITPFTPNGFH
Procedure: as §1, §2

[3] = molecular target: T3, FZD1 (Homo sapiens, UniProt Q9UP38); experiment: NanoBRET screen HiBiT-FZD1 in HEK293; conditions: FZD1
T3 construct: purchased Promega (in-house HiBiT-GPCR construct library, NanoBRET)
T3 sequence (Q9UP38 70-647): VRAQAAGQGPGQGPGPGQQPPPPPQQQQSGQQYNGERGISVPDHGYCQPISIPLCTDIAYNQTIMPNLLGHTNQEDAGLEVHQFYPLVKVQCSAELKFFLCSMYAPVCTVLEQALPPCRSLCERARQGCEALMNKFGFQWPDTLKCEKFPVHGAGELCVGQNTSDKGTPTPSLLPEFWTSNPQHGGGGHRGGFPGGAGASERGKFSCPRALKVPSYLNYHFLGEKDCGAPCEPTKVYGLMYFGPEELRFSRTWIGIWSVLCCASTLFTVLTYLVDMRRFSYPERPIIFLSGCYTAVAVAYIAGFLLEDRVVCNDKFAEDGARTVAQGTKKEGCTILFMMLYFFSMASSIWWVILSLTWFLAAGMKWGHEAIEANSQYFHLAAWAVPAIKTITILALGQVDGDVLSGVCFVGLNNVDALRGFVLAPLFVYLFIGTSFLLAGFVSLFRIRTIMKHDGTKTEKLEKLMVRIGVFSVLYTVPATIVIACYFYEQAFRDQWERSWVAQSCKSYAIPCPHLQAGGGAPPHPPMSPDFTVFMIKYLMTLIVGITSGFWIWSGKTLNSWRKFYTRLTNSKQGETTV
Procedure: as §1, §2

[4] = molecular target: T4, HTR1D (Homo sapiens, UniProt P28221); experiment: NanoBRET screen HiBiT-HTR1D in HEK293; conditions: HTR1D
T4 construct: purchased Promega (in-house HiBiT-GPCR construct library, NanoBRET)
T4 sequence (P28221 whole entry): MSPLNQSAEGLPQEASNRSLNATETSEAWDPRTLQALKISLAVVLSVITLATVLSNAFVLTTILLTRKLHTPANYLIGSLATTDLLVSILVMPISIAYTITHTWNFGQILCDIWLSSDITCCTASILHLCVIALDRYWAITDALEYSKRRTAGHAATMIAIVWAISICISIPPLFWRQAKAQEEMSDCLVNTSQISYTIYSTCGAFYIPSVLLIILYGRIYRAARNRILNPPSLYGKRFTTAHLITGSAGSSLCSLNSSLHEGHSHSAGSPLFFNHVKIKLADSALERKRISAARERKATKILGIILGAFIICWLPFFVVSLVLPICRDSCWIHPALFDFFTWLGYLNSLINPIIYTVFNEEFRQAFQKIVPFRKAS
Procedure: as §1, §2

[5] = molecular target: T5, TACR3 (Homo sapiens, UniProt P29371); experiment: NanoBRET screen HiBiT-TACR3 in HEK293; conditions: TACR3
T5 construct: purchased Promega (in-house HiBiT-GPCR construct library, NanoBRET)
T5 sequence (P29371 1-465): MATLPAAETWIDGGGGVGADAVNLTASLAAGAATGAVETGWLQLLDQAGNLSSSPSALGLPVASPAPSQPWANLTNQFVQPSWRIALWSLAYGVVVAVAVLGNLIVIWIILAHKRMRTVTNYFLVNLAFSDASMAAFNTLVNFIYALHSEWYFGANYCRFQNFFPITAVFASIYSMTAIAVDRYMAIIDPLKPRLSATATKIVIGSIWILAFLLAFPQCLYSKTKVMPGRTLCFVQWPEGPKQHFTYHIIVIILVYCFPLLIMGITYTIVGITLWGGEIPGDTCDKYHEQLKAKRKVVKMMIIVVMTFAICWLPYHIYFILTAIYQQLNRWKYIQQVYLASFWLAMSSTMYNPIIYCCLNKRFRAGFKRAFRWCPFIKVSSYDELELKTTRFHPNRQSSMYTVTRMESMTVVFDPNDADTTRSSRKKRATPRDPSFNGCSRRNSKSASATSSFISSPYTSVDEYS
Procedure: as §1, §2

CC(C)N(CC[C@H](c1ccccc1)c1cc(CCNC(=O)c2ccc(CNC(=O)CCc3ccc4n3[B-](F)(F)[N+]3=C(c5ccc[nH]5)C=CC3=C4)cc2)ccc1O)C(C)C [Tolterodine-BZ-NB590]
NanoBRET Fold Response ([1]; tracer 0.1μM): 0.98 | NanoBRET Fold Response ([1]; tracer 1μM): 1.11 | NanoBRET Fold Response ([2]; tracer 0.1μM): 1.02 | NanoBRET Fold Response ([2]; tracer 1μM): 1.18 | NanoBRET Fold Response ([3]; tracer 0.1μM): 1.04 | NanoBRET Fold Response ([3]; tracer 1μM): 0.95 | NanoBRET Fold Response ([4]; tracer 0.1μM): 1.27 | NanoBRET Fold Response ([4]; tracer 1μM): 0.92 | NanoBRET Fold Response ([5]; tracer 0.1μM): 0.98 | NanoBRET Fold Response ([5]; tracer 1μM): 1.06

CCCn1c(=O)c2[nH]c(-c3ccc(OCC(=O)NCCNC(=O)CCOCCNC(=O)c4ccc(CNC(=O)CCc5ccc6n5[B-](F)(F)[N+]5=C(c7ccc[nH]7)C=CC5=C6)cc4)cc3)nc2n(CCC)c1=O [XAC-3-NB590]
NanoBRET Fold Response ([1]; tracer 0.1μM): 1.05 | NanoBRET Fold Response ([1]; tracer 1μM): 0.91 | NanoBRET Fold Response ([2]; tracer 0.1μM): 0.99 | NanoBRET Fold Response ([2]; tracer 1μM): 1.00 | NanoBRET Fold Response ([3]; tracer 0.1μM): 0.78 | NanoBRET Fold Response ([3]; tracer 1μM): 1.33 | NanoBRET Fold Response ([4]; tracer 0.1μM): 0.47 | NanoBRET Fold Response ([4]; tracer 1μM): 0.65 | NanoBRET Fold Response ([5]; tracer 0.1μM): 1.06 | NanoBRET Fold Response ([5]; tracer 1μM): 1.01
